# How the values were obtained:
# Format in all cases: cell-based
# [1] = test system: K. pneumoniae (ATCC10031); experiment: 50% growth inhibitory concentration (IC50) determination assay, K. pneumoniae; settings: Klebsiella pneumoniae, ATCC10031; growth inhibition, Iso-Sensitest broth, OD 600 nm over 16 h; * = detection limit; read-out: IC50 (μM) K. pneumoniae ATCC10031
# Method: (§1) The in vitro antimicrobial activity of the compounds against E. coli (BW25113, obtained from Coli Genetic Stock Center, #7636) and K. pneumoniae (ATCC10031) was determined according to the following procedure:
# (§2) The assay used a 10-points Iso-Sensitest broth medium to measure quantitatively the in vitro activity of the compounds against E. coli BW25113 and K. pneumoniae ATCC 10031.
# (§3) Stock compounds in DMSO were serially two-fold diluted (range from 50 to 0.097 μM final concentration) in 384 wells microtiter plates and inoculated with 49 μL the bacterial suspension in Iso-Sensitest broth medium to have a final cell concentration of ˜5×10^5 CFU/mL in a final volume/well of 50 μL/well. Microtiter plates were incubated at 35±2° C.
# (§4) Bacterial cell growth was determined with the measurement of optical density at λ=600 nm each 20 minutes over a time course of 16 h.
# (§5) Growth inhibition was calculated during the logarithmic growth of the bacterial cells with determination of the concentration inhibiting 50% (IC50) of the growth.
# E. coli (BW25113) = experiment: 50% growth inhibitory concentration (IC50) determination assay, E. coli; settings: Escherichia coli, BW25113; growth inhibition, Iso-Sensitest broth, OD 600 nm over 16 h; read-out: IC50 (μM) E. coli K12 BW25113
# Method: as §1, §2, §3, §4, §5
# [2] = Cytotoxicity assay (HepG2, CellTiter-Blue); settings: human; HepG2 cells, 3 days treatment; * = detection limit
# Method: The cytotoxicity of compounds of present invention was assessed by HepG2 assay. HepG2 cells (ATCC HB-8065™) were seeded into 96-well plates (1.2×10^4 cells per well) and treated with compounds for 3 days, cell viability was measured at day 3 post compound treatment using the CellTiter-Blue® Cell Viability Assay (Promega, Cat. No. G8082). 20 μL of Cell titer blue buffer were added to each well of the cells, incubated for 3 hours at 37° C., and the fluorescence value was measured by a plate reader (Molecular Device SpectraMax M2). The CC50 value of each compound is plotted with GraphPad Prism using four parameter logistic equation.
# E. coli (ATCC 25922) = experiment: Minimal Inhibitory Concentration (MIC) assay; settings: Escherichia coli, ATCC25922; CAMHB, 20 hours at 35° C.; read-out: MIC (μg/mL) E. coli ATCC 25922
# Method: The in vitro potency of compounds to inhibit E. coli (ATCC 25922) growth was assessed by MIC (Minimal Inhibitory Concentration) assay. Samples were prepared from 10 mM DMSO stock solutions. After serial 2-fold dilution in DMSO in a master plate (Greiner, Cat No: 651201), 180 μL sterile distilled water was added to 20 μL each aliquot of the samples. Then 10 μL diluted compounds were transferred into a new assay plate (Costar, 3599).
# The growth medium […] Mueller Hinton Broth (CAMHB) was prepared by adding the 20 mg per liter CaCl2 and 20 mg per liter MgCl2 into the MHB medium (Jianglai Company, sterilized).
# Vials of each of the test microorganisms were maintained frozen in the vapor phase of a liquid nitrogen freezer. Took out the bacteria E. coli ATCC 25922 (KWIKSTIK, 0335K) from liquid nitrogen freezer, thawed it in room temperature, and diluted the bacterial in the CAMHB medium to achieve a final inoculum of 5×10^5 CFU/mL, 90 μL CAMHB with bacteria was dispensed to the assay plate and pipetted 5 times.
# Then the assay plates were incubated for 20 hours at 35° C. in ambient air. Following incubation, the MIC (μg/mL), the lowest concentration of drug that inhibits visible growth of the microorganism was read and recorded throw the microscope.
SMILES,IC50 [1] [µM],IC50 (E. coli (BW25113)) [µM],MIC (E. coli (ATCC 25922)) [µg/mL],CC50 at 3 days [2] [nM]
"CCNc1cc(F)cc2c1[nH]c1ncc(-c3cncc(C(=O)NOC)c3)c(-n3ccc(C(F)(F)F)n3)c12 [Example 3.03, 5-[8-(Ethylamino)-6-fluoro-4-[3-(trifluoromethyl)pyrazol-1-yl]-9H-pyrido[2,3-b]indol-3-yl]-N-methoxy-pyridine-3-carboxamide]",≤ 0.098,0.775,,13000
"CCNc1cc(F)cc2c1[nH]c1ncc(-c3cnc(OC)nc3)c(-n3ncc4c3CNC4)c12 [Example 1.21, 4-(5,6-Dihydro-4H-pyrrolo[3,4-c]pyrazol-1-yl)-N-ethyl-6-fluoro-3-(2-methoxypyrimidin-5-yl)-9H-pyrido[2,3-b]indol-8-amine]",,,,30500
"CNc1cc(F)cc2c1[nH]c1ncc(-c3cnc(OC)nc3)c(-n3nc(C#N)c4c3CNC4)c12 [Example 1.38, 1-[6-Fluoro-3-(2-methoxypyrimidin-5-yl)-8-(methylamino)-9H-pyrido[2,3-b]indol-4-yl]-5,6-dihydro-4H-pyrrolo[3,4-c]pyrazole-3-carbonitrile]",,,,11000
"CCNc1cc(F)cc2c1[nH]c1ncc(-c3cncc(C#N)c3)c(-n3cc(C(F)(F)F)cn3)c12 [Example 1.03, 5-[8-(Ethylamino)-6-fluoro-4-[4-(trifluoromethyl)pyrazol-1-yl]-9H-pyrido[2,3-b]indol-3-yl]pyridine-3-carbonitrile]",0.206,1.61,0.679,
"CCNc1cc(F)cc2c1[nH]c1ncc(-c3cnc(OCC(C)(C)C(=O)O)nc3)c(-n3ccc(C(F)(F)F)n3)c12 [Example 2.03, 3-[5-[8-(Ethylamino)-6-fluoro-4-[3-(trifluoromethyl)pyrazol-1-yl]-9H-pyrido[2,3-b]indol-3-yl]pyrimidin-2-yl]oxy-2,2-dimethyl-propanoic acid]",,,0.653,20700
"CCNc1cc(F)cc2c1[nH]c1ncc(-c3cnc4cccnc4c3)c(-n3ccc(C(F)(F)F)n3)c12 [Example 1.11, N-Ethyl-6-fluoro-3-(1,5-naphthyridin-3-yl)-4-[3-(trifluoromethyl)pyrazol-1-yl]-9H-pyrido[2,3-b]indol-8-amine]",0.208,0.803,0.288,
"CNc1cc(F)cc2c1[nH]c1ncc(-c3cncc(C#N)c3)c(-n3cc(CN)c(C(F)(F)F)n3)c12 [Example 1.14, 5-[4-[4-(Aminomethyl)-3-(trifluoromethyl)pyrazol-1-yl]-6-fluoro-8-(methylamino)-9H-pyrido[2,3-b]indol-3-yl]pyridine-3-carbonitrile]",,,,13300
"CCNc1cc(F)cc2c1[nH]c1ncc(-c3cncc(C(=O)NCCOC)c3)c(-n3ccc(C(F)(F)F)n3)c12 [Example 3.06, 5-[8-(ethylamino)-6-fluoro-4-[3-(trifluoromethyl)pyrazol-1-yl]-9H-pyrido[2,3-b]indol-3-yl]-N-(2-methoxyethyl)pyridine-3-carboxamide]",≤ 0.098,1.45,0.734,
"CCNc1cc(F)cc2c1[nH]c1ncc(-c3cnc4ccnn4c3)c(-n3ccc(C(F)(F)F)n3)c12 [Example 1.19, N-Ethyl-6-fluoro-3-pyrazolo[1,5-a]pyrimidin-6-yl-4-[3-(trifluoromethyl)pyrazol-1-yl]-9H-pyrido[2,3-b]indol-8-amine]",0.196,0.739,0.281,

# Further lines, with some results ahead:
IC50 [1] [µM],IC50 (E. coli (BW25113)) [µM],MIC (E. coli (ATCC 25922)) [µg/mL],SMILES,CC50 at 3 days [2] [nM]
≤ 0.098,0.346,0.153,"CNc1cc(F)cc2c1[nH]c1ncc(-c3cncc(C#N)c3)c(-n3cc(C#N)cn3)c12 [Example 1.09, 5-[4-(4-Cyanopyrazol-1-yl)-6-fluoro-8-(methylamino)-9H-pyrido[2,3-b]indol-3-yl]pyridine-3-carbonitrile]",14600
≤ 0.098,1.32,,"CCNc1cc(F)cc2c1[nH]c1ncc(-c3cncc(N)c3)c(-n3ccc(C(F)(F)F)n3)c12 [Example 1.37, 3-(5-Amino-3-pyridyl)-N-ethyl-6-fluoro-4-[3-(trifluoromethyl)pyrazol-1-yl]-9H-pyrido[2,3-b]indol-8-amine]",11100
0.175,1.05,0.354,"CCNc1cc(F)c(F)c2c1[nH]c1ncc(-c3cnc(OC)nc3)c(-n3ccc(C(F)(F)F)n3)c12 [Example 1.29, N-Ethyl-5,6-difluoro-3-(2-methoxypyrimidin-5-yl)-4-[3-(trifluoromethyl)pyrazol-1-yl]-9H-pyrido[2,3-b]indol-8-amine]",
0.111,1.12,0.284,"CCNc1cc(F)cc2c1[nH]c1ncc(-c3cnc(C(C)O)nc3)c(-n3ccc(C(F)(F)F)n3)c12 (stereo not drawn) [Example 1.54, 1-[5-[8-(ethylamino)-6-fluoro-4-[3-(trifluoromethyl)pyrazol-1-yl]-9H-pyrido[2,3-b]indol-3-yl]pyrimidin-2-yl]ethanol]",12400
,,0.601,"CCNc1cc(F)cc2c1[nH]c1ncc(-c3cnc(OC)nc3)c(-n3nc(C(F)(F)F)c4c3CNC4)c12 [Example 1.35, N-Ethyl-6-fluoro-3-(2-methoxypyrimidin-5-yl)-4-[3-(trifluoromethyl)-5,6-dihydro-4H-pyrrolo[3,4-c]pyrazol-1-yl]-9H-pyrido[2,3-b]indol-8-amine]",58000
≤ 0.098,0.536,0.259,"CCNc1cc(F)cc2c1[nH]c1ncc(-c3cncnc3)c(-n3ccc(C(F)(F)F)n3)c12 [Example 1.12, N-Ethyl-6-fluoro-3-pyrimidin-5-yl-4-[3-(trifluoromethyl)pyrazol-1-yl]-9H-pyrido[2,3-b]indol-8-amine]",
≤ 0.098,0.462,0.417,"CCNc1cc(F)cc2c1[nH]c1ncc(-c3cnc(OC)nc3)c(-n3cc(CN)c(C(F)(F)F)n3)c12 [Example 1.27, 4-[4-(Aminomethyl)-3-(trifluoromethyl)pyrazol-1-yl]-N-ethyl-6-fluoro-3-(2-methoxypyrimidin-5-yl)-9H-pyrido[2,3-b]indol-8-amine]",
0.13,1.56,0.552,"CCNc1cc(F)cc2c1[nH]c1ncc(-c3cnc(OC)nc3)c(-n3ccc(C(F)(F)F)n3)c12 [Example 1.04, N-Ethyl-6-fluoro-3-(2-methoxypyrimidin-5-yl)-4-[3-(trifluoromethyl)pyrazol-1-yl]-9H-pyrido[2,3-b]indol-8-amine]",
0.199,0.8,0.7,"CCNc1cc(F)c(F)c2c1[nH]c1ncc(-c3cncc(C#N)c3)c(-n3ccc(C(F)(F)F)n3)c12 [Example 1.28, 5-[8-(Ethylamino)-5,6-difluoro-4-[3-(trifluoromethyl)pyrazol-1-yl]-9H-pyrido[2,3-b]indol-3-yl]pyridine-3-carbonitrile]",
≤ 0.098,0.631,0.284,"CCNc1cc(F)cc2c1[nH]c1ncc(-c3cnc([C@H](C)O)nc3)c(-n3ccc(C(F)(F)F)n3)c12 [Example 1.57, (1S)-1-[5-[8-(ethylamino)-6-fluoro-4-[3-(trifluoromethyl)pyrazol-1-yl]-9H-pyrido[2,3-b]indol-3-yl]pyrimidin-2-yl]ethanol]",
≤ 0.098,0.796,,"CCNc1cc(F)cc2c1[nH]c1ncc(-c3cncc(C(=O)NC)c3)c(-n3ccc(C(F)(F)F)n3)c12 [Example 1.43, 5-[8-(Ethylamino)-6-fluoro-4-[3-(trifluoromethyl)pyrazol-1-yl]-9H-pyrido[2,3-b]indol-3-yl]-N-methyl-pyridine-3-carboxamide]",11100

# From patent US20210309658A1, “ARYL COMPOUNDS FOR THE TREATMENT AND PROPHYLAXIS OF BACTERIAL INFECTION” (Hoffmann-La Roche Inc., priority 2018, published 2021)
